Measurements published in US20220411362A1, “DITERPENOID COMPOUNDS THAT ACT ON PROTEIN KINASE C (PKC)” (K-Gen, Inc., priority 2019, published 2022).
pKi: −log10 of the molar value. Where two headings read alike, the source gives them in different places.

How the values were obtained:
C1b domain of human PKCδ = target: T1, C1b domain of human PKCδ (Homo sapiens, UniProt Q05655); test: Competitive 3H-PDBu binding to C1b domain of PKCδ; details: 3H-PDBu competition
T1 construct: Genes encoding C1b domains of human PKCα, δ, ε, θ, and PKD1 (PKCμ) were synthesized; made in house; host or cells: E. coli BL21(DE3)
Description: (§1) Compounds described in this disclosure were tested for binding affinity to C1b domain of PKC isoforms. Compound binding affinity to C1b domain of PKC isoforms was derived from competitive binding assay using radioactive tracer ^3H-PDBu and recombinant GST-C1b or full-length of human PKC proteins based on modified procedures from Methods in Molecular Biology, vol.
(§2) Genes encoding C1b domains of human PKCα, δ, ε, θ, and PKD1 (PKCμ) were synthesized and inserted into pGEX-2TK or pGEX-4T1 vectors for expression and production of GST-C1b proteins in E. coli BL21(DE3) via IPTG induction. The target proteins were purified by glutathione sepharose 4B and followed by ion exchange chromatography if needed to achieve purity >70%. Aliquots of the purified proteins were stored at −80 degree for binding assay (storage buffer: 20 mM Tris pH 8.0, 200 mM NaCl, 10% glycerol, 1 mM DTT).
(§3) The plate was incubated at 37° C. on a shaker at 300 rpm for 10 minutes and then put on ice for 20 minutes. […] The bottom of the filter plate was sealed and 50 μL of MicroScint-20 (PerkinElmer) cocktail was added to each well. ^3H-PDBu trapped in each well was counted using PerkinElmer MicroBeta2 Reader. Data were analyzed using GraphPad Prism5 with the model “log(inhibitor) vs. response-variable slope” to fit the IC50, and then IC50 was transformed to Ki using Cheng-Prusoff equation: Ki=IC50/(1+added radio ligand/Kd). Kd is the binding affinity of each protein preparation to ^3H-PDBu, determined experimentally.

C1b domain of human PKCα = target: T2, C1b domain of human PKCα (Homo sapiens, UniProt P17252); test: biochemical; type: binding; details: Ki PKCα, 3H-PDBu competition
T2 construct: Genes encoding C1b domains of human PKCα, δ, ε, θ, and PKD1 (PKCμ) were synthesized; made in house; host or cells: E. coli BL21(DE3)
Description: as §1, §2
The plate was incubated at 37° C. on a shaker at 300 rpm for 10 minutes and then put on ice for 20 minutes. […] The bottom of the filter plate was sealed and 50 μL of MicroScint-20 (PerkinElmer) cocktail was added to each well. ^3H-PDBu trapped in each well was counted using PerkinElmer MicroBeta2 Reader. […] Kd is the binding affinity of each protein preparation to ^3H-PDBu, determined experimentally.

C1b domain of human PKCθ = target: T3, C1b domain of human PKCθ (Homo sapiens, UniProt Q04759); test: Competitive 3H-PDBu binding to C1b domain of PKCθ
T3 construct: Genes encoding C1b domains of human PKCα, δ, ε, θ, and PKD1 (PKCμ) were synthesized; made in house; host or cells: E. coli BL21(DE3)
T3 sequence (Q04759 231-281 limits assumed): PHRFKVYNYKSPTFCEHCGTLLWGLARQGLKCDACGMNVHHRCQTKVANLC
Description: as §1, §2, §3

C1b domain of human PKCε = target: T4, C1b domain of human PKCε (Homo sapiens, UniProt Q02156); test: Competitive 3H-PDBu binding to C1b domain of PKCε
T4 construct: Genes encoding C1b domains of human PKCα, δ, ε, θ, and PKD1 (PKCμ) were synthesized; made in house; host or cells: E. coli BL21(DE3)
Description: as §1, §2, §3

[1] = target: T5, C1b domain of human PKD1 (PKCμ) (Homo sapiens, UniProt Q15139); test: biochemical; type: binding
T5 construct: Genes encoding C1b domains of human PKCα, δ, ε, θ, and PKD1 (PKCμ) were synthesized; made in house; host or cells: E. coli BL21(DE3)
T5 sequence (Q15139 270-320 limits assumed): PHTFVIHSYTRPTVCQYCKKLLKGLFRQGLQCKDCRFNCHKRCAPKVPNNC
Description: as §1, §2, §3

[2] = system: A549 non-small cell lung cancer cell line; test: Proliferation of A549 (CellTiter Glo); type: cell-based; details: read-out: IC50 μM (A549 Cell Line)
Description: The diterpenoid compounds were tested in A549, a non-small cell lung cancer cell line harboring a K-Ras activating mutation. Briefly, A549 cells at a density of 1,000 cells/well were seeded in 96-well plates and incubated at 37° C. for 24 hours. A series of different concentrations of compound stocks (500×) were prepared by 3-fold serial dilution in DMSO. These compounds were further diluted in culture media and then added to cells so that the final DMSO concentration was not exceeding 0.25%. After 96 hours of incubation, 50 μL of CellTiter Glo reagent (Promega) was added to each well and luminescence was measured after 10 minutes using EnVision (PerkinElmer). Luminescence from cells treated with DMSO alone was set as Max and % of inhibition was calculated as follows: Inhibition %=(Max−Sample value)/Max×100. Data was analyzed using XL-fit software (ID Business Solutions Ltd.) and IC50, relative IC50, and % of top inhibition was calculated. Some of the compounds in this disclosure were very potent in blocking proliferation of A549 lung cancer cells at low nM range. In addition, potency of inhibiting A549 proliferation correlated well with its binding affinity to PKCs for this series of compounds. In other words, higher affinity binders had stronger inhibitory effects on A549 proliferation. This further support the notion that activation, rather than inhibition, of certain PKC isoforms is required to block proliferation of cancer cells, some of which may harbor K-Ras mutations. This is in sharp contrast to previous literature and common belief that inhibition of PKC is necessary to block cancer cell growth (Kang, 2014, New Journal of Science, 2014:1-36). Data presented here is in agreement with recent findings that many loss-of-function but not gain-of-function mutations of PKC isoforms have been identified in many human cancers (Antal et al., 2015, Cell, 160:489-502).

T1 sequence (Q05655 230-280 limits assumed): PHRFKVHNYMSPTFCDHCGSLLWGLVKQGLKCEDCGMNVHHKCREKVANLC
T4 sequence (Q02156 242-292 limits assumed): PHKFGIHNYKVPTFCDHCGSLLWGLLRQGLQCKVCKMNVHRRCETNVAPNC

SMILES	pKi (C1b domain of human PKCδ; Ki PKCδ)	pKi (C1b domain of human PKCα)	pKi (C1b domain of human PKCθ)	pKi (C1b domain of human PKCε)	pKi [1]	IC50 ([2]; Homo sapiens, A549, 96 h)	pKi (C1b domain of human PKCδ; read-out: Ki PKCδ)	pKi (C1b domain of human PKCθ; C1b domain of human PKCθ, 3H-PDBu competition, read-out: Ki PKCθ)	pKi (C1b domain of human PKCε; C1b domain of human PKCε, 3H-PDBu competition, read-out: Ki PKCε)	pKi ([1]; C1b domain of human PKD1 (PKCμ), 3H-PDBu competition, read-out: Ki PKD1/PKCμ)	IC50 ([2]; A549, 96 hours incubation, CellTiter Glo)
CC1=C[C@H]2[C@@]3(O)[C@H](C)C[C@]4(OC(=O)[C@H](N)CCCCCCCCc5ccccc5)[C@H]([C@@H]3C=C(CO)C[C@]2(O)C1=O)C4(C)C [Compound K101-C136101]	7.52 to 9.00	6.10 to 6.40	7.52 to 9.00	7.52 to 9.00	8.00 to 8.30	0.01 to 0.03 µM	–	–	–	–	–
CC1=C[C@H]2[C@@]3(O)[C@H](C)C[C@]4(OC(=O)/C=C/c5ccc(C(F)(F)F)cc5)[C@H]([C@@H]3C=C(CO)C[C@]2(O)C1=O)C4(C)C [Compound K101-C1313]	7.52 to 9.00	6.40 to 6.70	7.52 to 9.00	7.52 to 9.00	> 8.30	0.06 to 0.1 µM	–	–	–	–	–
CC1=C[C@H]2[C@@]3(O)[C@H](C)C[C@]4(OC(=O)[C@H](N)CCCCCCc5ccc(C(F)(F)F)cc5)[C@H]([C@@H]3C=C(CO)C[C@]2(O)C1=O)C4(C)C [Compound K101-C135901]	7.22 to 7.52	5.70 to 6.00	7.22 to 7.52	–	7.52 to 9.00	0.06 to 0.1 µM	–	–	–	–	–
CCCCCCCCCCCCCC(=O)O[C@@H]1[C@@H](C)[C@@]2(O)[C@@H](C=C(CO)C[C@]3(O)C(=O)C(C)=C[C@@H]23)[C@@H]2C(C)(C)[C@]12OC(C)=O [Compound K103, 12-O-Tetradecanoylphorbol-13-acetate, reference compound]	–	–	–	–	–	–	> 8.30	> 8.30	> 8.30	> 8.30	< 0.001 µM
CC1=C[C@H]2[C@@]3(O)[C@H](C)C[C@]4(OC(=O)CC5CC6(CNC6)C5)[C@H]([C@@H]3C=C(CO)C[C@]2(O)C1=O)C4(C)C [Compound K101-C1306]	6.70 to 7.00	5.70 to 6.00	6.70 to 7.00	6.40 to 6.70	7.52 to 9.00	> 30 µM	–	–	–	–	–
CC1=C[C@H]2[C@@]3(O)[C@H](C)C[C@]4(OC(=O)[C@@H](N)CCCCCCc5ccc(C(F)F)cc5)[C@H]([C@@H]3C=C(CO)C[C@]2(O)C1=O)C4(C)C [Compound K101-C137002]	7.52 to 9.00	6.40 to 6.70	7.52 to 9.00	7.22 to 7.52	8.00 to 8.30	0.1 to 0.2 µM	–	–	–	–	–
CC1=C[C@H]2[C@@]3(O)[C@H](C)C[C@]4(OC(=O)[C@@H](N)CCCCCCCCc5ccccc5)[C@H]([C@@H]3C=C(CO)C[C@]2(O)C1=O)C4(C)C [Compound K101-C136102]	7.52 to 9.00	7.22 to 7.52	> 8.30	8.00 to 8.30	> 8.30	0.001 to 0.01 µM	–	–	–	–	–
CC1=C[C@H]2[C@@]3(O)[C@H](C)C[C@]4(OC(=O)C5CC6(C5)CN(C(=O)OC(C)(C)C)C6)[C@H]([C@@H]3C=C(CO)C[C@]2(O)C1=O)C4(C)C [Compound K101-C1311]	7.52 to 9.00	6.10 to 6.40	7.52 to 9.00	7.22 to 7.52	> 8.30	0.1 to 0.2 µM	–	–	–	–	–
CC1=C[C@H]2[C@@]3(O)[C@H](C)C[C@]4(OC(=O)[C@H](N)CCCc5ccccc5)[C@H]([C@@H]3C=C(CO)C[C@]2(O)C1=O)C4(C)C [Compound K101-C1351]	7.22 to 7.52	5.70 to 6.00	–	–	7.52 to 9.00	0.2 to 0.6 µM	–	–	–	–	–
CC1=C[C@H]2[C@@]3(O)[C@H](C)C[C@]4(OC(=O)CCc5scnc5C)[C@H]([C@@H]3C=C(CO)C[C@]2(O)C1=O)C4(C)C [Compound K101-C1320]	7.22 to 7.52	5.40 to 5.70	–	–	7.52 to 9.00	0.2 to 0.6 µM	–	–	–	–	–
CC1=C[C@H]2[C@@]3(O)[C@H](C)C[C@]4(OC(=O)C5CC6(CNC6)C5)[C@H]([C@@H]3C=C(CO)C[C@]2(O)C1=O)C4(C)C [Compound K101-C1305]	6.10 to 6.40	< 5.10	6.40 to 6.70	5.70 to 6.00	6.70 to 7.00	> 30 µM	–	–	–	–	–
CC1=C[C@H]2[C@@]3(O)[C@H](C)C[C@]4(OC(=O)[C@H](N)CCCCCCc5ccc(C(F)F)cc5)[C@H]([C@@H]3C=C(CO)C[C@]2(O)C1=O)C4(C)C [Compound K101-C137001]	7.52 to 9.00	6.00 to 6.10	7.22 to 7.52	7.22 to 7.52	7.52 to 9.00	0.1 to 0.2 µM	–	–	–	–	–
CC1=C[C@H]2[C@@]3(O)[C@H](C)C[C@]4(OC(=O)C[C@@H](N)Cc5ccccc5)[C@H]([C@@H]3C=C(CO)C[C@]2(O)C1=O)C4(C)C [Compound K101-C1344]	7.22 to 7.52	5.70 to 6.00	–	–	7.52 to 9.00	1 to 2 µM	–	–	–	–	–
CC1=C[C@H]2[C@@]3(O)[C@H](C)C[C@]4(OC(=O)[C@H](N)Cc5c[nH]c6ccccc56)[C@H]([C@@H]3C=C(CO)C[C@]2(O)C1=O)C4(C)C [Compound K101-C1341]	7.22 to 7.52	5.70 to 6.00	–	–	7.52 to 9.00	10 to 30 µM	–	–	–	–	–
CC1=C[C@H]2[C@@]3(O)[C@H](C)C[C@]4(OC(=O)[C@H](CC5CCCCC5)N(C)C)[C@H]([C@@H]3C=C(CO)C[C@]2(O)C1=O)C4(C)C [Compound K101-C1365]	6.70 to 7.00	5.22 to 5.40	–	–	7.22 to 7.52	0.6 to 1 µM	–	–	–	–	–
CC1=C[C@H]2[C@@]3(O)[C@H](C)C[C@]4(O)[C@H]([C@@H]3C=C(CO)C[C@]2(O)C1=O)C4(C)C [Compound K101-C13OH]	5.10 to 5.22	< 5.10	5.40 to 5.70	5.40 to 5.70	5.22 to 5.40	> 30 µM	–	–	–	–	–
CC1=C[C@H]2[C@@]3(O)[C@H](C)C[C@]4(OC(=O)C(Cc5ccccc5)C(=O)O)[C@H]([C@@H]3C=C(CO)C[C@]2(O)C1=O)C4(C)C (stereo partly shown) [Compound K101-C1353]	6.10 to 6.40	< 5.10	–	–	5.22 to 5.40	1 to 2 µM	–	–	–	–	–
CC1=C[C@H]2[C@@]3(O)[C@H](C)C[C@]4(OC(=O)C[C@H](N)Cc5ccccc5)[C@H]([C@@H]3C=C(CO)C[C@]2(O)C1=O)C4(C)C [Compound K101-C1358]	7.52 to 9.00	6.40 to 6.70	–	–	8.00 to 8.30	1 to 2 µM	–	–	–	–	–
CC1=C[C@H]2[C@@]3(O)[C@H](C)C[C@]4(OC(=O)C[C@@H](N)c5ccccc5)[C@H]([C@@H]3C=C(CO)C[C@]2(O)C1=O)C4(C)C [Compound K101-C1357]	6.40 to 6.70	< 5.10	–	–	7.22 to 7.52	2 to 5 µM	–	–	–	–	–
CC1=C[C@H]2[C@@]3(O)[C@H](C)C[C@]4(OC(=O)[C@@H](N)CCS(C)(=O)=O)[C@H]([C@@H]3C=C(CO)C[C@]2(O)C1=O)C4(C)C [Compound K101-C1326]	6.10 to 6.40	< 5.10	–	–	6.40 to 6.70	> 30 µM	–	–	–	–	–
